Columns and labels:
in vitro [1] = conditions: human, colo 320 cells, pH 7.5
[2] = Stereoselective hydrolysis of anticancer agent esters with normal rat muscle homogenate; conditions: 12 hours at 30° C., pH 7.5
in vitro [3] = conditions: rat, anr4 cells, pH 7.5
[4] = test system: rat pancreas cancer cells ARIP; assay: Stereoselective hydrolysis of anticancer agent esters with rat pancreas cancer cells ARIP; conditions: ARIP; 12 hours at 30° C., pH 7.5
[5] = test system: human pancreas cancer cells MIA PaCa-2; assay: Stereoselective hydrolysis of anticancer agent esters with human pancreas cancer cells MIA PaCa-2; conditions: MIA PaCa-2; 12 hours at 30° C., pH 7.5
in vitro [6] = conditions: human, mia paca-2 cells, pH 7.5
rat sarcoma cells XC = assay: Stereoselective hydrolysis of anticancer agent esters with rat sarcoma cells XC; conditions: XC; 12 hours at 30° C., pH 7.5
[7] = test system: rat liver cancer cells Anr4; assay: Stereoselective hydrolysis of anticancer agent esters with rat liver cancer cells Anr4; conditions: Anr4; 12 hours at 30° C., pH 7.5
[8] = test system: human histiocytic leukemia cells U937; assay: Stereoselective hydrolysis of anticancer agent esters with human histiocytic leukemia cells U937; conditions: U937; 12 hours at 30° C., pH 7.5
in vitro [9] = conditions: rat, xc cells, pH 7.5
[10] = Stereoselective hydrolysis of anticancer agent esters with rat whole blood; conditions: pH 7.5; for enantiomer excess of the carboxylic acid produced by the hydrolysis: rat whole blood, 12 hours at 30° C.; for metabolised at 12 h: rat, whole blood
in vitro [11] = conditions: rat, arip cells, pH 7.5
in vitro [12] = conditions: rat, blood, pH 7.5
[13] = Stereoselective hydrolysis of anticancer agent esters with normal rat liver homogenate; conditions: 12 hours at 30° C., pH 7.5
[14] = test system: human intestinum crassum cancer cells Colo 320; assay: Stereoselective hydrolysis of anticancer agent esters with human intestinum crassum cancer cells Colo 320; conditions: Colo320; 12 hours at 30° C., pH 7.5
[15] = Stereoselective hydrolysis of anticancer agent esters with normal rat pancreas homogenate; conditions: 12 hours at 30° C., pH 7.5
in vitro [16] = conditions: human, u937 cells, pH 7.5
in vitro [17] = conditions: human, blood, pH 7.5
[18] = Stereoselective hydrolysis of anticancer agent esters with human whole blood; conditions: pH 7.5; for enantiomer excess of the carboxylic acid produced by the hydrolysis: human whole blood, 12 hours at 30° C.
[19] = test system: rat liver cancer cells Anr4; assay: Anticancer effect (suppression of multiplication) on rat liver cancer cells Anr4; assay type: cell-based; conditions: for multiplication of Anr4 cells suppressed to % of the control: same way as in Example 2 (Example 3); for multiplication of Anr4 cells suppressed to % of the control / number of cells, % for the value of the control: 2880 min; for suppression of multiplication of Anr4 cells, comparison of enantiomers: Ib: at 1 μM to 0.1 μM, Ic: at 10 μM; for number of cells, % for the value of the control: 6 hours exposure, then 42 hours in fresh medium
Protocol: The anticancer effect of levo-rotatory or dextro-rotatory 4-bis(2-chloroethyl)aminophenyl 2-methoxy-2-phenylacetate (Ib) on rat liver cancer cells Anr4 was tested. Anr4 cells were suspended, in an amount of cells number of 1×10^6 per 1 ml, in William's E medium containing 10% of fetal bovine serum, and 0.1 ml of the suspension was distributed to each well of a 24-well multiplate. Further, 1.385 ml of the above medium was added to each well. They were cultured for 4 hours at 37° C. in a CO2 incubator, and then 15 μl of pure ethanol or an ethanol solution containing (R)-(-)-Ib or (S)-(+)-Ib obtained in Synthetic. Example 4, having a concentration of 10 mM, 1 mM, 0.1 mM, 0.01 mM, or 0.001 mM, was added to the medium in each well, and they were mixed well.
After they were cultured for 6 hours in the above incubator, the medium was removed by suction, and 1.5 ml of fresh medium was added. After culturing was continued for 42 hours, the number of cells in each well was counted by a Coulter counter. The results, in terms of % for the value of the control (the well added pure ethanol), were 9%, 12%, 16%, 55%, and 95% for the concentrations of 100 μM, 10 μM, 1 μM, 0.1 μM, and 0.01 μM of (R)-(-)-Ib in the medium, respectively. For the concentrations of 100 μM, 10 μM, 1 μM, 0.1 μM, and 0.01 μM of (S)-(+)-Ib in the medium, the results were 9%, 18%, 30%, 83%, and 95%, respectively.
The anticancer effect of the optically active substances of Ic obtained in Synthetic Example 5 on Anr4 cells was tested in the same way as in Example 2. As a result, at 10 μM, (R)-(+)-Ic suppressed the multiplication of Anr4 cells to 14% of the control, and (S)-(-)-Ic suppressed the multiplication of Anr4 cells to 25% of the control.

[20] = Stereoselective hydrolysis of anticancer agent esters with rat pancreas cancer cells ARIP; conditions: rat, arip cells, pH 7.5
[21] = Stereoselective hydrolysis of anticancer agent esters with rat sarcoma cells XC; conditions: rat, xc cells, pH 7.5
[22] = Stereoselective hydrolysis of anticancer agent esters with rat liver cancer cells Anr4; conditions: rat, anr4 cells, pH 7.5

In the case of CC(C(=O)Oc1ccc(N(CCCl)CCCl)cc1)c1ccccc1 (racemic) [Ia, (±)-4-bis(2-chloroethyl)aminophenyl 2-phenylpropionate], the metabolised at 12 h (in vitro [1]) is reported as 3%, the “enantiomer excess of the carboxylic acid produced by the hydrolysis” value (shortened to “enantiomer excess”) [2] is reported as 1.8 % e.e and the metabolised at 12 h (in vitro [3]) is reported as 20.9%. For the same compound, the “enantiomer excess” value [4] was 42.8 % e.e, the “enantiomer excess” value [5] was 87.1 % e.e and the metabolised at 12 h (in vitro [6]) was 6%. The “enantiomer excess” value (rat sarcoma cells XC) was 18.6 % e.e, the “enantiomer excess” value [7] was 68.9 % e.e and the “enantiomer excess” value [8] was 72.3 % e.e. For the same compound, the metabolised at 12 h (in vitro [9]) was 6.3%, the “enantiomer excess” value [10] was 9.4 % e.e and the metabolised at 12 h (in vitro [11]) was 10.2%. For the same compound, the metabolised at 12 h (in vitro [12]) was 5.8%, the “enantiomer excess” value [13] was 15.7 % e.e and the “enantiomer excess” value [14] was 68.9 % e.e. For the same compound, the “enantiomer excess” value [15] was 1.0 % e.e, the metabolised at 12 h (in vitro [16]) was 5.2% and the metabolised at 12 h (in vitro [17]) was 2.4%. For the same compound, the “enantiomer excess” value [18] was 9.1 % e.e.
For COC(C(=O)Oc1ccc(N(CCCl)CCCl)cc1)c1ccccc1 (racemic) [Ib, (±)-4-bis(2-chloroethyl)aminophenyl 2-methoxy-2-phenylacetate], the “enantiomer excess” value [2] was 46.0 % e.e, the metabolised at 12 h (in vitro [3]) was 14% and the “enantiomer excess” value [4] was 26.8 % e.e. The “enantiomer excess” value (rat sarcoma cells XC) was 69.9 % e.e, the “enantiomer excess” value [7] was 91.3 % e.e and the metabolised at 12 h (in vitro [9]) was 23.9%. For the same compound, the “enantiomer excess” value [10] was 20.4 % e.e, the metabolised at 12 h (in vitro [11]) was 55.2% and the metabolised at 12 h (in vitro [12]) was 55.2%. The “enantiomer excess” value [13] was 33.2 % e.e and the “enantiomer excess” value [15] was 8.4 % e.e.
In the case of O=C(Oc1ccc(N(CCCl)CCCl)cc1)C(Cc1ccccc1)NC(=O)C(F)(F)F (racemic) [Ic, (±)-4-bis(2-chloroethyl)aminophenyl 2-trifluoroacetamido-3-phenylpropionate], the metabolised at 12 h (in vitro [1]) is reported as 2.4%, the “enantiomer excess” value [2] is reported as 72.4 % e.e and the metabolised at 12 h (in vitro [3]) is reported as 0.6%. For the same compound, the “enantiomer excess” value [4] was 83.0 % e.e, the “enantiomer excess” value [5] was 2.6 % e.e and the metabolised at 12 h (in vitro [6]) was 7.2%. For the same compound, the “enantiomer excess” value (rat sarcoma cells XC) was 77.9 % e.e, the “enantiomer excess” value [7] was 94.9 % e.e and the “enantiomer excess” value [8] was > 99 % e.e. For the same compound, the metabolised at 12 h (in vitro [9]) was 10.6%, the “enantiomer excess” value [10] was 18.3 % e.e and the metabolised at 12 h (in vitro [11]) was 14.6%. For the same compound, the metabolised at 12 h (in vitro [12]) was 18.2%, the “enantiomer excess” value [13] was 93.2 % e.e and the “enantiomer excess” value [14] was 35.9 % e.e. For the same compound, the “enantiomer excess” value [15] was > 99 % e.e, the metabolised at 12 h (in vitro [16]) was 9.6% and the metabolised at 12 h (in vitro [17]) was 8%. The “enantiomer excess” value [18] was 23.7 % e.e.
In the case of O=C(Oc1ccc(N(CCCl)CCCl)cc1)[C@@H](Cc1ccccc1)NC(=O)C(F)(F)F [(R)-(+)-Ic, 4-bis(2-chloroethyl)aminophenyl 2-trifluoroacetamido-3-phenylpropionate], the “multiplication of Anr4 cells suppressed to % of the control” value ([19]; 10 μM) is reported as 14% and the “suppression of multiplication of Anr4 cells, comparison of enantiomers” value [19] is reported as “stronger cell multiplication-suppressing effect than (S)-(-)-Ic”.
With CO[C@@H](C(=O)Oc1ccc(N(CCCl)CCCl)cc1)c1ccccc1 [(R)-(-)-Ib, 4-bis(2-chloroethyl)aminophenyl 2-methoxy-2-phenylacetate] the “number of cells, % for the value of the control” value (“number of cells, %” for short) ([19]; 0.01 μM) was 95%, the “number of cells, %” value ([19]; 0.1 μM) was 55% and the “number of cells, %” value ([19]; 1 μM) was 16%. For the same compound, the “number of cells, %” value ([19]; 10 μM) was 12%, the “number of cells, %” value ([19]; 100 μM) was 9% and the “suppression of multiplication of Anr4 cells, comparison of enantiomers” value [19] was “suppressed the multiplication of Anr4 cells more strongly than dextro-rotatory (S)-(+)-Ib did”.
In the case of CO[C@H](C(=O)Oc1ccc(N(CCCl)CCCl)cc1)c1ccccc1 [(S)-(+)-Ib, 4-bis(2-chloroethyl)aminophenyl 2-methoxy-2-phenylacetate], the “number of cells, %” value ([19]; 0.01 μM) is reported as 95%, the “number of cells, %” value ([19]; 0.1 μM) is reported as 83% and the “number of cells, %” value ([19]; 1 μM) is reported as 30%. The “number of cells, %” value ([19]; 10 μM) was 18% and the “number of cells, %” value ([19]; 100 μM) was 9%.
In the case of O=C(Oc1ccc(N(CCCl)CCCl)cc1)[C@H](Cc1ccccc1)NC(=O)C(F)(F)F [(S)-(-)-Ic, 4-bis(2-chloroethyl)aminophenyl 2-trifluoroacetamido-3-phenylpropionate], the “multiplication of Anr4 cells suppressed to % of the control” value ([19]; 10 μM) is reported as 25%.
With CC(C(=O)OC[C@H]1O[C@@H](n2cc(F)c(=O)[nH]c2=O)[C@H](O)[C@@H]1O)c1ccccc1 (stereo partly drawn) [IIa, 5'-(RS)-(2-phenylpropionyl)-5-fluorouridine] the “enantiomer excess” value [2] was 61.7 % e.e, the metabolised at 12 h [20] was 25.2% and the “enantiomer excess” value [4] was 91.3 % e.e. The metabolised at 12 h [21] was 16.8%, the “enantiomer excess” value (rat sarcoma cells XC) was 82.1 % e.e and the metabolised at 12 h [22] was 26.3%. For the same compound, the “enantiomer excess” value [7] was 81.6 % e.e, the “enantiomer excess” value [8] was 38.2 % e.e and the “enantiomer excess” value [10] was 53.7 % e.e. For the same compound, the metabolised at 12 h [10] was 6.3%, the “enantiomer excess” value [13] was 85.6 % e.e and the “enantiomer excess” value [15] was 36.9 % e.e. The “enantiomer excess” value [18] was 12.5 % e.e and the metabolised at 12 h ([18]; human, whole blood) was 5.3%.
With COC(C(=O)OC[C@H]1O[C@@H](n2cc(F)c(=O)[nH]c2=O)[C@H](O)[C@@H]1O)c1ccccc1 (stereo partly drawn) [IIb, 5'-(RS)-(2-methoxy-2-phenylacetyl)-5-fluorouridine] the “enantiomer excess” value [2] was 18.5 % e.e, the metabolised at 12 h [20] was 27.7% and the “enantiomer excess” value [4] was 84.1 % e.e. The metabolised at 12 h [21] was 23%, the “enantiomer excess” value (rat sarcoma cells XC) was 81.5 % e.e and the metabolised at 12 h [22] was 23.7%. The “enantiomer excess” value [7] was 81.1 % e.e, the “enantiomer excess” value [10] was 55.0 % e.e and the metabolised at 12 h [10] was 14.8%. The “enantiomer excess” value [13] was 6.0 % e.e and the “enantiomer excess” value [15] was 42.5 % e.e.

From patent publication US5808049A, “Stereospecific 5-fu esters and methods for preparing same” (Director-General of Agency of Industrial Science and …, priority 1994, dated 1998)
